{
  "source": "patent US8648085B2",
  "about": "“1, 5-dihydro-pyrazolo (3, 4-D) pyrimidin-4-one derivatives and their use as PDE9A mudulators for the treatment of CNS disorders” (Boehringer Ingelheim International GmbH, priority 2007, dated 2014)",
  "origin": "cited, not measured here",
  "key": {"PDE9A": {"target": "PDE9A (Homo sapiens, UniProt O76083)", "sequence (O76083 whole entry)": "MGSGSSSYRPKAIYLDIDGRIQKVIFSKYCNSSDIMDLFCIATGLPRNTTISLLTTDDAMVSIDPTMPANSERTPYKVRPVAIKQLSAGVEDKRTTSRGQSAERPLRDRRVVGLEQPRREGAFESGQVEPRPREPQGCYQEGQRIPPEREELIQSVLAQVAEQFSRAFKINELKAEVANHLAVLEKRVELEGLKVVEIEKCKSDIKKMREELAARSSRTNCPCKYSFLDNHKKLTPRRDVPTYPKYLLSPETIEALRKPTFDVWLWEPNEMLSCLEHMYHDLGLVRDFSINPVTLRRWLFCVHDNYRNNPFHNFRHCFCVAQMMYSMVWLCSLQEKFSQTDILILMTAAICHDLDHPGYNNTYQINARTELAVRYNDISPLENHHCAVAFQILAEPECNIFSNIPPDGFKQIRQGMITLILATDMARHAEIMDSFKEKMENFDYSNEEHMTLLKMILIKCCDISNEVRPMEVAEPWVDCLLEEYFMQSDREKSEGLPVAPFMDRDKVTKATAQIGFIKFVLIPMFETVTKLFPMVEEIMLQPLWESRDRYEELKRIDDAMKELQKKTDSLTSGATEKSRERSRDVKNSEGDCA", "conditions": "concentrations of up to 100 [mu]M; cited from earlier work"}, "Murine PDE9A": {"target": "T1, Murine PDE9A (Mus musculus, UniProt O70628)", "T1 sequence (O70628 1-534)": "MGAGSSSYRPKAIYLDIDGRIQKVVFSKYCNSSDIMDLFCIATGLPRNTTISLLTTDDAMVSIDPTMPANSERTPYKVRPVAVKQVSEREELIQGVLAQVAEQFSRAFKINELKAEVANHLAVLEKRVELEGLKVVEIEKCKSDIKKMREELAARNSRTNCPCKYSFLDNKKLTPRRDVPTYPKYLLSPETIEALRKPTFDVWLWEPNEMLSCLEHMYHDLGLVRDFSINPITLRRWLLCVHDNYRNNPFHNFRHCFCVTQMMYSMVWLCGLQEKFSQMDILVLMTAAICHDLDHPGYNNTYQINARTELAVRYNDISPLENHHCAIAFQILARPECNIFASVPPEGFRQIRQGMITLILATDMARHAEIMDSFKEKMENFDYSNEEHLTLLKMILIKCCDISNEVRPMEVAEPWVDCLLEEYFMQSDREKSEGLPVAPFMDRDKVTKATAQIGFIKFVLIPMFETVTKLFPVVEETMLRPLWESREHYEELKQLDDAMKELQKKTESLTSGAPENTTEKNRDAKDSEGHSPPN", "conditions": "concentrations below 200 [mu]M; cited from earlier work"}},
  "data": [
    {"smiles": "CC(C)Cn1c(=O)n(C)c(=O)c2[nH]cnc21", "note": "[IBMX]", "values": [
      {"measurement": "inhibition on the isolated enzyme (human PDE9A)", "setting": "PDE9A", "value": "no inhibition"},
      {"measurement": "inhibition of murine PDE9A", "setting": "Murine PDE9A", "value": "not inhibited"}
    ]}
  ]
}
